Biological target: T1, recombinant human NPY 5 receptors (Homo sapiens, UniProt Q15761)
T1 construct: made in house; host or cells: Sf9 insect cells, baculovirus-infected (membranes)
T1 sequence (Q15761 1-445): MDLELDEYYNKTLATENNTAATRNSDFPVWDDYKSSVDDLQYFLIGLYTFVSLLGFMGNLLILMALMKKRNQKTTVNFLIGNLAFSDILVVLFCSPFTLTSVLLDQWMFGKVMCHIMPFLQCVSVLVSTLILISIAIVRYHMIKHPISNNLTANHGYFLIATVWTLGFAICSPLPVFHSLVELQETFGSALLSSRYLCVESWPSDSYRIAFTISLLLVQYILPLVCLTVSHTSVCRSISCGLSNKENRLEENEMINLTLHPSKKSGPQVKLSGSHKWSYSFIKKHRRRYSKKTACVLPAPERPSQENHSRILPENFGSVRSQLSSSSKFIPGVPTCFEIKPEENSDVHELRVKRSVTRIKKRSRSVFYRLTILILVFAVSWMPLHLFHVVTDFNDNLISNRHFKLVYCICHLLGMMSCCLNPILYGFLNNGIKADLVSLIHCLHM
Test: [125I]PYY binding at human NPY5 receptors expressed in Sf9 cells
Conditions: [125I]PYY(porcine) displacement, membranes of baculovirus-infected Sf9 cells; read-out: Ki (binding constants in the NPY5)
Description: [^125 I]PYY Binding at Human NPY Receptors Expressed in Sf9 Cells
Baculovirus-infected Sf9 cells expressing recombinant human NPY 5 receptors are harvested at 48 hours. At the time of harvest, cell pellets are resuspended in lysis buffer (20 mM Tris-HCl, pH 7.4, 5 mM EDTA, 0.5 μg/ml leupeptin, 2 μg/ml Aprotonin and […]) and homogenized using a Polytron (setting 3, 25-30 seconds). Homogenates are centrifuged at 4° C. for 5 minutes at 200 x g ([…]) to pellet the nuclei. The supernatant is collected into a fresh tube and centrifuged at 48,000 x g for 10 minutes. Pellets are washed once in lysis buffer and centrifuged. The final pellet is resuspended in PBS and stored in aliquots at -80° C. Purified membranes are washed using PBS and resuspended in binding buffer (50 mM Tris(HCl), pH 7.4, 5 mM KCl, 120 mM NaCl, 2 mM CaCl2, 1 mM MgCl2, 0.1% bovine serum albumin (BSA)). Membranes (20 μg/reaction tube) are added to polypropylene tubes containing 0.035 nM [^125 I]PYY(porcine), displacers ranging from 10^-12 M to 10^-5 M, and buffer to yield a final volume of 0.5 mL. Nonspecific binding is determined in the presence of 1 μM NPY(human) and accounts for 10% of total binding. Following a 2 hour incubation at room temperature, the reaction is terminated by rapid vacuum filtration. […] IC50 values were calculated with the non-linear curve fitting program RS/1 (SigmaPlot, Jandel).

| Structure (SMILES) | Ki |
| --- | --- |
| CCN(CC)c1ccc(NC(=O)C(c2ccccc2)c2ccccc2)cc1 [--N(C2 H5)2] | 8 nM |
| Cc1ccc(NC(=O)C(c2ccccc2)c2ccccc2)cc1 [--CH3] | 800 nM |
